The results in this text go back to patent US20050143450A1, “Alkyl PCDF as a treatment for prostate cancer” (priority 2002, published 2005).

For experiment [1], the system named is LNCaP prostate cancer cells. The class given is cell-based, human. The method, then: Cells were analyzed on a FACS Calibur (Becton Dickinson, San Jose, Calif.) flow cytometer, equipped with a 15 mW air-cooled argon laser, using CellQuest (Becton Dickinson) acquisition software. Propidium iodide (PI) fluorescence was collected through a 585/42-nm bandpass filter, and list mode data were acquired on a minimum of 12,000 single cells defined by a dot plot of PI-width versus PI-area. Data analysis was performed in ModFit LT (Verity Software House, Topsham, Me.) using PI-width versus PI-area to exclude cell aggregates.
The effects of TCDD on cell cycle progression was also determined in LNCaP cells treated with 1.0, 10 and 100 nM TCDD for 48 h followed by FACS analysis (Table 1).

Another experiment deals with LNCaP cells. The class given is cell-based, human. Here is the method:
After trypsinization and low-speed centrifugation, LNCaP cells were resuspended and counted using a Coulter cell counter (Beckman Coulter, Fullerton, Calif.). Cells were seeded at a density of 5×10^4/35-mm well using DME-F12 without phenol red, supplemented with 2.5% charcoal-stripped fetal bovine serum (FBS). Twenty-four hours after seeding, initial treatment was applied and then subsequently reapplied with fresh medium every two days until harvesting by trypsinization. Cells were counted after harvesting using a Coulter counter.

Experiment [2] concerns androgen-responsive probasin gene promoter (pPB). The class given is cell-based, human. Here is the method:
ZR-75 human breast cancer and LNCaP human prostate cancer cells were obtained from American Type Culture Collection (Manassas, Va.) and were maintained in RPMI 1640 medium supplemented with 10% FBS, 1% antibiotic/antimycotic solution, 1.5 g/L sodium bicarbonate, and 10 mM HEPES, final pH of 7.4. Cells were seeded at 2.75×10^5 per 22-mm well in DME-F12 without phenol red, supplemented with 2.5% charcoal-stripped fetal bovine serum (FBS). After 24 h, cells were transfected using Lipofectamine and Plus reagents (Invitrogen) according to manufacturer's instructions. LNCaP and ZR-75 cells were transfected with 500 ng/well of either reporter plasmid, and 250 ng/well of pcDNA3.1-β-gal (Invitrogen) as the internal control. In addition, ZR-75 cells were transfected with 500 ng hAR. Twenty-four hours after treatment, cells were harvested by scraping with 200 μL/well of reporter lysis buffer. Lysates were centrifuged at 40,000 g and luciferase and β-galactosidase activity was assayed with 30 μL of the supernatant extract per sample using a Lumicount luminometer (PerkinElmer, Boston, Mass.). Luciferase activity was normalized to β-galactosidase activity for each transfection well.

The target in the next experiment is T1, AhR (Homo sapiens, UniProt P35869).
T1 construct: LNCaP cells were transfected with pDRE3, treated with various compounds and luciferase activity was determined; endogenous in cells; host or cells: LNCaP
T1 sequence (P35869 11-848): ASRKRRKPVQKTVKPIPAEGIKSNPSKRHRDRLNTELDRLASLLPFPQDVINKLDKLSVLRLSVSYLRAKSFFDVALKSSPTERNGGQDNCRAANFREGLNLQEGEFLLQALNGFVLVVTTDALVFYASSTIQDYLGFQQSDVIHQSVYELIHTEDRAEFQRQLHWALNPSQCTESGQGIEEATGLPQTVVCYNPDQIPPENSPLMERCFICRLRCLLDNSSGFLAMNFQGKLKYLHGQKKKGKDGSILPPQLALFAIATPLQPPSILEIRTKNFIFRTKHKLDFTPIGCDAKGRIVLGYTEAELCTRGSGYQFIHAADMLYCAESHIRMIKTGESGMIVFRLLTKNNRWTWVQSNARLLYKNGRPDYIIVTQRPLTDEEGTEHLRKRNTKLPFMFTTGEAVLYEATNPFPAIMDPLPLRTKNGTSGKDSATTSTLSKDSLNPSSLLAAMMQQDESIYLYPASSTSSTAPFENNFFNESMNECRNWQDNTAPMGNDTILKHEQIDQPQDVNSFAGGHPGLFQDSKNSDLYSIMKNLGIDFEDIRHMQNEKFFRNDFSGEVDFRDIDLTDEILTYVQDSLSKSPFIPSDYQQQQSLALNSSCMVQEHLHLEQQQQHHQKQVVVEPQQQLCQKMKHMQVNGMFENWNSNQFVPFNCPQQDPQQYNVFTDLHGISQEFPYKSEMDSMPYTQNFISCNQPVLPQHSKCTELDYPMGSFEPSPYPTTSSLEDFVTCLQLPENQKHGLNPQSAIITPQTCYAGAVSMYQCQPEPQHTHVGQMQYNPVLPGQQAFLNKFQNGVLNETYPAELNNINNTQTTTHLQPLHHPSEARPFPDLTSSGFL
Briefly: AhR activation, pDRE3 luciferase transient transfection in LNCaP cells. The class given is cell-based. The method, then: (§1) After 24 h, cells were transfected using Lipofectamine and Plus reagents (Invitrogen) according to manufacturer's instructions. LNCaP and ZR-75 cells were transfected with 500 ng/well of either reporter plasmid, and 250 ng/well of pcDNA3.1-β-gal (Invitrogen) as the internal control. In addition, ZR-75 cells were transfected with 500 ng hAR. Twenty-four hours after treatment, cells were harvested by scraping with 200 μL/well of reporter lysis buffer. Lysates were centrifuged at 40,000 g and luciferase and β-galactosidase activity was assayed with 30 μL of the supernatant extract per sample using a Lumicount luminometer (PerkinElmer, Boston, Mass.). Luciferase activity was normalized to β-galactosidase activity for each transfection well.
LNCaP cells were transfected with pDRE3, treated with various compounds and luciferase activity was determined as described in the above Examples.

In experiment [3] the target is T2, AR (Homo sapiens, UniProt P10275, T878A).
T2 construct: AR protein levels in whole cell lysates were determined by Western blot analysis; endogenous in cells; host or cells: LNCaP
T2 sequence (P10275 1-920 T878A): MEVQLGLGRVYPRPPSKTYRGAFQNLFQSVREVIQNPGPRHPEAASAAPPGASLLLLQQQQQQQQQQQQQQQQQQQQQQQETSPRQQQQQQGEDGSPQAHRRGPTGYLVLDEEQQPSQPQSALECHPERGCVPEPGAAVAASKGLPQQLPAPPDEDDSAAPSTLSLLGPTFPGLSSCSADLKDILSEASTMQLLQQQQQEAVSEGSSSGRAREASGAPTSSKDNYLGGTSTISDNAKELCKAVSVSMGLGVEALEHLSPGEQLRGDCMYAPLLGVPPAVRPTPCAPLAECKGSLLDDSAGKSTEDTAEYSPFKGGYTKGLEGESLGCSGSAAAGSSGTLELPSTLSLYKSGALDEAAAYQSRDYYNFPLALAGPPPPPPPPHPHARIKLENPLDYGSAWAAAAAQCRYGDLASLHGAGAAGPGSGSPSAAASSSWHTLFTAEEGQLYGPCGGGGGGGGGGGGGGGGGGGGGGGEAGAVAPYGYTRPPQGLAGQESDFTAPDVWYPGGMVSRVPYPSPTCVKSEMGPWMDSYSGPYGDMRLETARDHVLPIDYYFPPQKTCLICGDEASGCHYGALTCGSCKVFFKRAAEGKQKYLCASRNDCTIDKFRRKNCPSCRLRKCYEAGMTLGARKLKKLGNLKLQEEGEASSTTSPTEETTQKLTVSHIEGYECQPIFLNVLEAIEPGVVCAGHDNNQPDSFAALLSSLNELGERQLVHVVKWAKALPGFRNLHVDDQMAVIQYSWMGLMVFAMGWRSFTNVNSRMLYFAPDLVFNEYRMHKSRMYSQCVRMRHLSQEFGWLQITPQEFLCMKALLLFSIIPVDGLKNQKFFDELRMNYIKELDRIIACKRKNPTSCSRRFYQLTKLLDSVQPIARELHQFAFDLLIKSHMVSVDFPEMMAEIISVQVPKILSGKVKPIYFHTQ
The class given is cell-based. The note with it: LNCaP, pPB, HPTE 10 μM. Here is the method:
as §1
The transfected cells were then treated with hormone or AhR agonist alone or in combination and luciferase activity was determined as described in the above examples.

Experiment [4] concerns AR. As to the kind of experiment: AR protein levels in LNCaP cells by Western blot. The class given is cell-based, human. The note with it: 6 h. Here is the method:
Cells were harvested 6 h after treatment using 200 μL/22-mm well of ice cold lysis buffer (50 mM HEPES, pH 7.5, 500 mM NaCl, 10% (v/v) glycerol, 1% (v/v) Triton-X 100, 1.5 mM MgCl2, 1 mM EGTA) (McDougal et al., 2001). Lysates were centrifuged at 40,000 g, and supernatant was collected as extract. Whole cell extracts (50 μg/sample) were separated by electrophoresis on a tiered 7.5% (top)/12.5% (bottom) SDS-polyacrylamide gel and transferred to PVDF membrane (Bio-Rad, Richmond, Calif.). The membrane was blocked with 5% milk (m/v) in tris-buffered saline 0.05% Tween (TBST). Membranes were incubated with primary antibodies for AR (sc-7305), cyclin D1 (sc-718), or p27 (sc-528) (each from Santa Cruz Biotechnology, Santa Cruz, Calif.) at 1:1000 in 5% milk/TBST for 3 h. Membranes were washed twice in TBST. Horseradish peroxidase (HRP)-conjugated secondary antibodies were applied at 1:5000 in 5% milk/TBST for 1 h. After two TBST washes, PVDF-bounded antibodies were detected using a chemiluminescence kit (Western Lightning, PerkinElmer), ImageTek-H film (American X-Ray and Medical Supply, Rancho Cordova, Calif.) and an autoprocessor (Hope Macro-Med, Warminster, Pa.). Quantitation of the Western blot was performed using a Sharp JX-330 scanner (Sharp, Mahwah, N.J.) and Zero-D software (Scanalytics, Billerica, Mass.).
In general terms: Immunoblotting shows a protein as a band on a membrane.

Experiment [5] has as its target T2, AR. The class given is cell-based. The note with it: LNCaP. Here is the method:
as §1
Next, LNCaP cells were transfected with pARR3 construct that contained three tandem (3) copies of the probasin androgen response element. The transfected cells were treated with hormone or AhR agonist alone or in combination and luciferase activity was determined as described in the above examples.

Read-outs that look alike come from different tables or passages of the source.

For `C[C@]12CCC(=O)C[C@@H]1CC[C@@H]1[C@@H]2CC[C@]2(C)[C@@H](O)CC[C@@H]12` [DHT, dihydrotestosterone], in experiment [1], the “Percent Distribution G0/G1” value was 73.400 ± 1.179%; the “Percent Distribution G2/M” value came to 9.433 ± 1.011%; the “Percent Distribution S” value is recorded as 17.167 ± 0.296%; the “cell cycle distribution, difference between solvent (DMSO) and DHT” value is recorded as “minimal differences”. Moreover, the hormone-induced cell growth entry with LNCaP cells is recorded as “not observed”. For the same compound, the reporter gene activity entry in experiment [2] is recorded as “did not activate”. The “luciferase activity induction compared to solvent control (DMSO)” value on AhR (pDRE3, 10 nM) was “did not significantly induce activity”. At AhR (pDRE3, hormone in combination with 6-MCDF), the “effect on 6-MCDF-induced luciferase activity” value is on record as “significantly inhibited”.
Regarding `C[C@]12CC[C@@H]3c4ccc(O)cc4C[C@@H](CCCCCCCCC[S+]([O-])CCCC(F)(F)C(F)(F)F)[C@H]3[C@@H]1CC[C@@H]2O` (stereo partly shown) [ICI 182780], the “effect on DHT-induced luciferase activity” value was “only minimal inhibition” at AR [3] (cotreatment with 10 nM DHT, MCDF 2 μM) and “inhibited” at AR [5] (pARR3, cotreatment with DHT). Besides, the “effect on E2-induced luciferase activity” value on AR [3] (cotreatment with 10 nM E2) is listed as “significantly inhibited”; on AR [5] (pARR3, cotreatment with E2), “inhibited”. Also, in the experiment on AR [4], the “AR levels in combination with DHT compared to DHT alone” value is “not decreased”. The “AR levels in combination with E2 compared to E2 alone” value with AR [4] is recorded as “not decreased”. In addition, the “AR protein levels, compound alone” value in the experiment with AR [4] (DHT 10 nM, E2 10 nM, TCDD 10 nM, 6-MCDF 2 μM, HPTE 10 μM) is given as “increased”.
Consider `C[C@]12CC[C@@H]3c4ccc(O)cc4CC[C@H]3[C@@H]1CC[C@@H]2O` [E2, 17β-estradiol], for which the reporter gene activity entry in experiment [2] (ZR-75 cells, pPB alone) is recorded as “did not activate”.
